This passage reports logP results from the SangsterLogP compilation.

A short description of this data set: method code SF-AS, from DOI: 10.1080/01483918708066826.

For orientation: logP means a log measure of how a compound divides between an organic and an aqueous phase. Low readings indicate a more hydrophilic compound, high ones a more lipophilic compound. For the compound `O=C(O)Cc1ccc(-n2cccc2)cc1`, the logP amounted to 0.76. The compound `O=C(O)C(Cc1ccc(F)cc1)n1cccc1` (stereo not given) yielded a logP of 2.04. Then `O=C(O)C(c1ccccc1)n1cccc1` (stereo not given), with 1.57; and `O=C(O)C(c1ccccc1F)n1cccc1` (stereo not given), with 2.49; and `O=C(O)C(Cc1ccc(O)cc1)n1cccc1` (stereo not given), with 1.56. Then `O=C(O)c1ccccc1-n1cccc1`, with 2.04; and `O=C(O)C(Cc1ccccc1)n1cccc1` (stereo not given), with 2.34; and `O=C(O)C(Cc1ccc(Cl)cc1)n1cccc1` (stereo not given), with 2.08. Compound `O=C(O)Cn1cccc1` returned a log partition coefficient (logP) of 0.7.

As to `O=C(O)C(c1ccc(Cl)cc1)n1cccc1` (stereo not given), the logP was found to be 2.3.
